# In patent US11319299B2, “Substituted carboxamides as inhibitors of WDR5 protein-protein binding” (PROPELLON THERAPEUTICS INC., priority 2016, dated 2022):
# pKd: −log10 of the molar value.
# Target: WDR5 (Homo sapiens (Human), UniProt P61964)
# Assay: Surface Plasmon Resonance (SPR) assay, KD and residence time
# Assay type: binding
# Conditions: surface plasmon resonance (SPR) assay; read-out: WDR5 binding affinity (KD)
row,pKd,SMILES
1,8.22,"C[C@@H]1CN(c2cc(F)c(-c3ccccc3)cc2NC(=O)c2c[nH]c(=O)cc2C(F)(F)F)C[C@H](C)N1C [Example 146, N-[4-fluoro-5-phenyl-2-[(3R,5S)-3,4,5-trimethylpiperazin-1-yl]phenyl]-6-oxo-4-(trifluoromethyl)-1H-pyridine-3-carboxamide]"
2,7.86,"C[C@@H]1CN(c2cc(F)c(-c3cnc(N4CCOCC4)nc3)cc2NC(=O)c2ccc(F)c(Cl)c2F)C[C@H](C)N1C [Example 266, 3-chloro-2,4-difluoro-N-[4-fluoro-5-(2-morpholin-4-ylpyrimidin-5-yl)-2-[(3R,5S)-3,4,5-trimethylpiperazin-1-yl]phenyl]benzamide]"
3,8.78,"C[C@@H]1CN(c2cc(F)c(-c3ccc(OCC4CC4)nc3)cc2NC(=O)c2c[nH]c(=O)cc2C(F)F)C[C@H](C)N1C [Example 314, N-[5-[6-(cyclopropylmethoxy)pyridin-3-yl]-4-fluoro-2-[(3R,5S)-3,4,5-trimethylpiperazin-1-yl]phenyl]-4-(difluoromethyl)-6-oxo-1H-pyridine-3-carboxamide]"
4,7.52,"CN(C)[C@@H]1CCN(c2cc(F)c(-c3cnc(N4CCOCC4)nc3)cc2NC(=O)c2cc(Cl)cc(Cl)c2)C1 [Example 168, 3,5-dichloro-N-[4-fluoro-5-(2-morpholin-4-ylpyrimidin-5-yl)-2-[(3R)-3-(dimethylamino)pyrrolidin-1-yl]phenyl]benzamide]"
5,9.03,"C[C@@H]1CN(c2cc(F)c(C3=CCN(c4ccccn4)CC3)cc2NC(=O)c2c[nH]c(=O)cc2C(F)(F)F)C[C@H](C)N1C [Example 270, N-[4-fluoro-5-(1-pyridin-2-yl-3,6-dihydro-2H-pyridin-4-yl)-2-[(3R,5S)-3,4,5-trimethylpiperazin-1-yl]phenyl]-6-oxo-4-(trifluoromethyl)-1H-pyridine-3-carboxamide]"
6,8.67,"CC1CN(c2cc(F)c(-c3cccc(CN(C)C4COC4)c3)cc2NC(=O)c2c[nH]c(=O)cc2C(F)(F)F)CCN1C (stereo in doubt) [Example 214, N-[4-fluoro-5-[3-[[methyl(oxetan-3-yl)amino]methyl]phenyl]-2-[(3R)-3,4-dimethylpiperazin-1-yl]phenyl]-6-oxo-4-(trifluoromethyl)-1H-pyridine-3-carboxamide]"
7,9.06,"CC1CN(c2cc(F)c(-c3cnc(N(C)C4CCOCC4)nc3)cc2NC(=O)c2c[nH]c(=O)cc2C(F)(F)F)CCN1C (stereo in doubt) [Example 370, N-[4-fluoro-5-[2-[methyl(oxan-4-yl)amino]pyrimidin-5-yl]-2-[(3R)-3,4-dimethylpiperazin-1-yl]phenyl]-6-oxo-4-(trifluoromethyl)-1H-pyridine-3-carboxamide]"
8,9.15,"C[C@@H]1CN(c2cc(F)c(-c3cccc(N4CCOCC4)c3)cc2NC(=O)c2c[nH]c(=O)cc2C(F)(F)F)C[C@H](C)N1C [Example 85, N-[4-fluoro-5-(3-morpholin-4-ylphenyl)-2-[(3R,5S)-3,4,5-trimethylpiperazin-1-yl]phenyl]-6-oxo-4-(trifluoromethyl)-1H-pyridine-3-carboxamide]"
9,< 6.70,"C[C@@H]1CN(c2cc(C(F)(F)F)c(-c3cnc(N4CCOCC4)nc3)cc2NC(=O)c2c[nH]c(=O)cc2C(F)(F)F)C[C@H](C)N1C [Example 59, N-[5-(2-morpholin-4-ylpyrimidin-5-yl)-2-[rac-(3R,5S)-3,4,5-trimethylpiperazin-1-yl]-4-(trifluoromethyl)phenyl]-6-oxo-4-(trifluoromethyl)-1H-pyridine-3-carboxamide]"
10,8.23,"C[C@@H]1CN(c2cc(F)c(-c3cnc(N4CCOCC4)nc3)cc2NC(=O)c2ccc(F)cc2C(F)(F)F)C[C@H](C)N1 [Example 364, 4-fluoro-N-[4-fluoro-5-(2-morpholin-4-ylpyrimidin-5-yl)-2-[(3R,5S)-3,5-dimethylpiperazin-1-yl]phenyl]-2-(trifluoromethyl)benzamide]"

# Same assay, conditions: surface plasmon resonance (SPR); read-out: WDR5 binding affinity (KD)
row,SMILES,pKd
1,"C[C@@H]1CN(c2cc(F)c(-c3cnn(C)c3)cc2NC(=O)c2c[nH]c(=O)cc2C(F)(F)F)C[C@H](C)N1C [Example 445, N-[4-fluoro-5-(1-methylpyrazol-4-yl)-2-[(3R,5S)-3,4,5-trimethylpiperazin-1-yl]phenyl]-6-oxo-4-(trifluoromethyl)-1H-pyridine-3-carboxamide]",8.71
2,"C[C@@H]1CN(c2cc(F)c(C3=CCN(c4ncc(CN(C)C)cn4)C3)cc2NC(=O)c2c[nH]c(=O)cc2C(F)(F)F)C[C@H](C)N1C [Example 457, N-[5-[1-[5-[(dimethylamino)methyl]pyrimidin-2-yl]-2,5-dihydropyrrol-3-yl]-4-fluoro-2-[(3R,5S)-3,4,5-trimethylpiperazin-1-yl]phenyl]-6-oxo-4-(trifluoromethyl)-1H-pyridine-3-carboxamide]",8.59
3,"CC1CN(c2cc(F)c(-c3ccc(N4CCOCC4)c(F)c3)cc2NC(=O)c2cn(C)c(=O)cc2C(F)F)CCN1C (stereo in doubt) [Example 478, 4-(difluoromethyl)-N-[4-fluoro-5-(3-fluoro-4-morpholin-4-ylphenyl)-2-[(3R)-3,4-dimethylpiperazin-1-yl]phenyl]-1-methyl-6-oxopyridine-3-carboxamide]",8.27

# The remaining lines, values ahead:
row,pKd,SMILES
1,8.41,"C[C@@H]1CN(c2cc(F)c(-c3ccc(C(N)=O)c(F)c3F)cc2NC(=O)c2c[nH]c(=O)cc2C(F)(F)F)C[C@H](C)N1C [Example 670, N-[5-(4-carbamoyl-2,3-difluorophenyl)-4-fluoro-2-[(3R,5S)-3,4,5-trimethylpiperazin-1-yl]phenyl]-6-oxo-4-(trifluoromethyl)-1H-pyridine-3-carboxamide]"
2,8.24,"C[C@@H]1CN(c2cc(F)c(-c3cnc(NS(C)(=O)=O)nc3)cc2NC(=O)c2c[nH]c(=O)cc2C(F)(F)F)C[C@H](C)N1C [Example 582, N-[4-fluoro-5-[2-(methanesulfonamido)pyrimidin-5-yl]-2-[(3R,5S)-3,4,5-trimethylpiperazin-1-yl]phenyl]-6-oxo-4-(trifluoromethyl)-1H-pyridine-3-carboxamide]"
3,8.36,"C[C@@H]1CN(c2cc(F)c(-c3ccc4ncn(C)c4c3)cc2NC(=O)c2c[nH]c(=O)cc2C(F)(F)F)C[C@H](C)N1C [Example 676, N-[4-fluoro-5-(3-methylbenzimidazol-5-yl)-2-[(3R,5S)-3,4,5-trimethylpiperazin-1-yl]phenyl]-6-oxo-4-(trifluoromethyl)-1H-pyridine-3-carboxamide]"
4,8.55,"C[C@@H]1CN(c2cc(F)c(-c3nc(C(=O)N4CCN(C)CC4)cs3)cc2NC(=O)c2c[nH]c(=O)cc2C(F)(F)F)C[C@H](C)N1C [Example 487, N-[4-fluoro-5-[4-(4-methylpiperazine-1-carbonyl)-1,3-thiazol-2-yl]-2-[(3R,5S)-3,4,5-trimethylpiperazin-1-yl]phenyl]-6-oxo-4-(trifluoromethyl)-1H-pyridine-3-carboxamide]"
5,8.45,"C[C@@H]1CN(c2cc(F)c(-c3cnc(N4CCOCC4)nc3)cc2NC(=O)c2c[nH]c(=O)cc2C(F)(F)F)C[C@H](C)[N+]1(C)C [Example 479, N-[4-fluoro-5-(2-morpholin-4-ylpyrimidin-5-yl)-2-[(3R,5S)-3,4,4,5-tetramethylpiperazin-4-ium-1-yl]phenyl]-6-oxo-4-(trifluoromethyl)-1H-pyridine-3-carboxamide]"
6,8.93,"CC1CN(c2cc(F)c(-c3ccc(C(N)=O)c(F)c3)cc2NC(=O)c2c[nH]c(=O)cc2C(F)F)CCN1C (stereo in doubt) [Example 595, N-[5-(4-carbamoyl-3-fluorophenyl)-4-fluoro-2-[(3R)-3,4-dimethylpiperazin-1-yl]phenyl]-4-(difluoromethyl)-6-oxo-1H-pyridine-3-carboxamide]"
7,8.68,"CC(C)OC(=O)N1CCC=C(c2cc(NC(=O)c3c[nH]c(=O)cc3C(F)F)c(N3CCN(C)C(C)C3)cc2F)C1 (stereo in doubt) [Example 726, propan-2-yl 5-[5-[[4-(difluoromethyl)-6-oxo-1H-pyridine-3-carbonyl]amino]-2-fluoro-4-[(3R)-3,4-dimethylpiperazin-1-yl]phenyl]-3,6-dihydro-2H-pyridine-1-carboxylate]"
8,8.45,"CC(C)OC(=O)N1CCC=C(c2cc(NC(=O)c3ccc(F)cc3C(F)(F)F)c(N3CCN(C)C(C)C3)cc2F)C1 (stereo in doubt) [Example 728, propan-2-yl 5-[2-fluoro-5-[[4-fluoro-2-(trifluoromethyl)benzoyl]amino]-4-[(3R)-3,4-dimethylpiperazin-1-yl]phenyl]-3,6-dihydro-2H-pyridine-1-carboxylate]"
9,9.06,"C[C@@H]1CN(c2cc(F)c(C3=CCCN(c4ncc(C#N)cn4)C3)cc2NC(=O)c2c[nH]c(=O)cc2C(F)(F)F)C[C@H](C)N1C [Example 583, N-[5-[1-(5-cyanopyrimidin-2-yl)-3,6-dihydro-2H-pyridin-5-yl]-4-fluoro-2-[(3R,5S)-3,4,5-trimethylpiperazin-1-yl]phenyl]-6-oxo-4-(trifluoromethyl)-1H-pyridine-3-carboxamide]"
10,8.62,"C[C@@H]1CN(c2cc(F)c(-c3ccnc(N4CCOCC4)n3)cc2NC(=O)c2c[nH]c(=O)cc2C(F)F)C[C@H](C)N1C [Example 692, 4-(difluoromethyl)-N-[4-fluoro-5-(2-morpholin-4-ylpyrimidin-4-yl)-2-[(3R,5S)-3,4,5-trimethylpiperazin-1-yl]phenyl]-6-oxo-1H-pyridine-3-carboxamide]"
11,8.38,"C[C@@H]1CN(c2cc(F)c(-c3ccc(C(=O)NC4CCC(F)(F)CC4)c(F)c3)cc2NC(=O)c2c[nH]c(=O)cc2C(F)(F)F)C[C@H](C)N1C [Example 734, N-[5-[4-[(4,4-difluorocyclohexyl)carbamoyl]-3-fluorophenyl]-4-fluoro-2-[(3R,5S)-3,4,5-trimethylpiperazin-1-yl]phenyl]-6-oxo-4-(trifluoromethyl)-1H-pyridine-3-carboxamide]"
12,9.15,"C[C@@H]1CN(c2cc(F)c(-c3cc(F)c(C(=O)N(C)C4COC4)c(F)c3)cc2NC(=O)c2c[nH]c(=O)cc2C(F)(F)F)C[C@H](C)N1C [Example 763, 6-oxo-N-(3′,5′,6-trifluoro-4′-(methyl(oxetan-3-yl)carbamoyl)-4-((3S,5R)-3,4,5-trimethylpiperazin-1-yl)-[1,1′-biphenyl]-3-yl)-4-(trifluoromethyl)-1,6-dihydropyridine-3-carboxamide]"
